# In patent US9730447B2, “Fungicidal amides” (E I DU PONT DE NEMOURS AND COMPANY, priority 2013, dated 2017):
# Marks after values point to notes of the source that are not given here.
# Legend:
# Format in all cases: in vivo
# [1] = system: Botrytis cinerea; assay: Test A: preventive spray on tomato seedlings, Botrytis cinerea (gray mold), visual disease rating; conditions: 100 = 100% disease control, 0 = no control relative to controls, unmarked values; for pest or weed control at 40 µg/mL, 160 g/ha: 96 h
# Description: (§1) General protocol for preparing test suspensions for Tests A-E: the test compounds were first dissolved in acetone in an amount equal to 3% of the final volume and then suspended at the desired concentration (in ppm) in acetone and purified water (50/50 mix by volume) containing 250 ppm of the surfactant Trem® 014 (polyhydric alcohol esters). The resulting test suspensions were then used in Tests A-E. Compounds were sprayed with either a 40 ppm or 10 ppm (*) test suspension to the point of run-off on the test plants which is the equivalent of a rate of 160 g ai/ha or 40 g ai/ha, respectively.
# The test suspension was sprayed to the point of run-off on tomato seedlings. The following day the seedlings were inoculated with a spore suspension of Botrytis cinerea (the causal agent of gray mold on many crops) and incubated in a saturated atmosphere at 20° C. for 48 h, and moved to a growth chamber at 27° C. for 2 days, after which time visual disease ratings were made.
# (§2) Results for Tests A-E are given in Table A. In the Table, a rating of 100 indicates 100% disease control and a rating of 0 indicates no disease control (relative to the controls). A dash (-) indicates no test results.
# [2] = system: Stagonospora nodorum (also known as Septoria nodorum); assay: Test B: preventive spray on wheat seedlings, Stagonospora nodorum (wheat glume blotch), visual disease rating
# Description: as §1
# The test suspension was sprayed to the point of run-off on wheat seedlings. The following day the seedlings were inoculated with a spore suspension of Stagonospora nodorum (also known as Septoria nodorum; the causal agent of wheat glume blotch) and incubated in a saturated atmosphere at 20° C. for 48 h, and then moved to a growth chamber at 20° C. for 6 days, after which time visual disease ratings were made.
# as §2
# [3] = system: Erysiphe graminis f. sp. tritici; assay: Test E: preventive spray on wheat seedlings, Erysiphe graminis f. sp. tritici (wheat powdery mildew), visual disease rating
# Description: as §1
# The test suspension was sprayed to the point of run-off on wheat seedlings. The following day the seedlings were inoculated with a spore dust of Erysiphe graminis f. sp. tritici, (the causal agent of wheat powdery mildew) and incubated in a growth chamber at 20° C. for 8 days, after which time visual disease ratings were made.
# as §2
# [4] = system: Puccinia recondite f. sp. tritici; assay: Test D: preventive spray on wheat seedlings, Puccinia recondite f. sp. tritici (wheat leaf rust), visual disease rating
# Description: as §1
# The test suspension was sprayed to the point of run-off on wheat seedlings. The following day the seedlings were inoculated with a spore suspension of Puccinia recondite f. sp. tritici; (the causal agent of wheat leaf rust) and incubated in a saturated atmosphere at 20° C. for 24 h, and then moved to a growth chamber at 20° C. for 6 days, after which time visual disease ratings were made.
# as §2
# [5] = system: Septoria tritici; assay: Test C: preventive spray on wheat seedlings, Septoria tritici (wheat leaf blotch), visual disease rating
# Description: as §1
# The test suspension was sprayed to the point of run-off on wheat seedlings. The following day the seedlings were inoculated with a spore suspension of Septoria tritici (the causal agent of wheat leaf blotch) and incubated in a saturated atmosphere at 24° C. for 48 h, and then moved to a growth chamber at 20° C. for 21 days, after which time visual disease ratings were made.
# as §2
# [6] = 100 = 100% disease control, 0 = no control, unmarked values
# [7] = values marked with asterisk (*), meaning not given
SMILES,"pest or weed control at 40 µg/mL, 160 g/ha [1]","Test B disease control rating [2, 6]","Test E disease control rating [3, 6]","Test D disease control rating [4, 6]",other results
"O=C(Nc1ccccc1-c1cnc(-n2ccc(C(F)(F)F)n2)cn1)c1ncccc1C(F)(F)F [Compound 3, 3-(trifluoromethyl)-N-[2-[5-[3-(trifluoromethyl)-1H-pyrazol-1-yl]-2-pyrazinyl]phenyl]-2-pyridinecarboxamide]",0%,–,–,–,–
"O=C(Nc1ccccc1-c1cnc(-n2ccc(C(F)(F)F)n2)c(Cl)c1)c1ncccc1C(F)(F)F [Compound 34, N-[2-[5-chloro-6-[3-(trifluoromethyl)-1H-pyrazol-1-yl]-3-pyridinyl]phenyl]-3-(trifluoromethyl)-2-pyridinecarboxamide]",96%,–,–,–,–
"O=C(Nc1ccccc1-c1ccc(-n2ccc(C(F)(F)F)n2)nn1)c1ncccc1C(F)(F)F [Compound 59, 3-(trifluoromethyl)-N-[2-[6-[3-(trifluoromethyl)-1H-pyrazol-1-yl]-3-pyridazinyl]phenyl]-2-pyridinecarboxamide]",0%,–,–,–,–
"O=C(Nc1ccccc1-c1cnc(-n2cc(Cl)cn2)c(Cl)c1)c1ncccc1C(F)(F)F [Compound 61, N-[2-[5-chloro-6-[4-chloro-1H-pyrazol-1-yl]-3-pyridinyl]phenyl]-3-(trifluoromethyl)-2-pyridinecarboxamide]",41%,–,–,–,–
"Cn1cc(C(=O)Nc2ccccc2-c2cnc(-n3ccc(C(F)(F)F)n3)c(F)c2)c(C(F)F)n1 [Compound 68, 3-(difluoromethyl)-N-[2-[5-fluoro-6-[3-(trifluoromethyl)-1H-pyrazol-1-yl]-3-pyridinyl]phenyl]-1-methyl-1H-pyrazole-4-carboxamide]",94%,–,–,–,–
"CC(Cc1ccc(-n2ccc(C(F)(F)F)n2)nc1)NC(=O)c1cn(C)nc1C(F)F (stereo not shown) [Compound 83, 3-(difluoromethyl)-1-methyl-N-[1-methyl-2-[6-[3-(trifluoromethyl)-1H-pyrazol-1-yl]-3-pyridinyl]ethyl]-1H-pyrazole-4-carboxamide]",99%,–,–,–,–
"CC(Cc1ccc(-n2ccc(C(F)(F)F)n2)nc1)NC(=O)c1ncccc1C(F)(F)F (stereo not shown) [Compound 84, N-[1-methyl-2-[6-[3-(trifluoromethyl)-1H-pyrazol-1-yl]-3-pyridinyl]ethyl]-3-(trifluoromethyl)-2-pyridinecarboxamide]",66%,–,–,–,–
Cn1cc(C(=O)Nc2ccccc2-c2ccc(-n3ccc(-c4cc(F)cc(F)c4)n3)nc2)c(C(F)F)n1 [compound 89],–,0%,79%,100%,Test A disease control rating [1]: 75%
Cn1cc(C(=O)Nc2ccccc2-c2ccc(-n3ccc(-c4ccccc4F)n3)nc2)c(C(F)F)n1 [compound 90],–,46%,72%,100%,Test A disease control rating [1]: 93%
COc1cc(OC)cc(-c2ccn(-c3ccc(-c4ccccc4NC(=O)c4cn(C)nc4C(F)F)cn3)n2)c1 [compound 91],–,33%,56%,100%,Test A disease control rating [1]: 87%
Cc1nc(C(F)(F)F)c(C(=O)Nc2ccccc2-c2ccc(-n3ccc(C(F)(F)F)n3)nc2)s1 [compound 92],–,60%,98%,100%,Test A disease control rating [1]: 0%
Cc1nc(C(F)(F)F)c(C(=O)Nc2ccccc2-c2cnc(-n3ccc(C(F)(F)F)n3)c(F)c2)s1 [compound 151],–,0%,98%,100%,"Test C disease control rating [5, 6]: 98%"
Cc1ccsc1C(=O)Nc1ccccc1-c1cnc(-n2ccc(C(F)(F)F)n2)c(F)c1 [compound 152],–,99%,99%,100%,"Test C disease control rating [5, 6]: 99%"
Cc1ccsc1C(=O)Nc1ccccc1-c1cnc(-n2ccc(C(F)(F)F)n2)c(C#N)c1 [compound 154],–,–,–,–,"Test B disease control rating [2, 7]: 59* %; Test E disease control rating [3, 7]: 0* %; Test C disease control rating [5, 7]: 94* %; Test D disease control rating [4, 7]: 100* %"
O=C(Nc1ccccc1-c1cnc(-n2ccc(C(F)F)n2)c(F)c1)c1ncccc1C(F)(F)F [compound 161],–,100%,99%,100%,"Test C disease control rating [5, 6]: 95%"
Cn1cc(C(=O)Nc2ccccc2-c2cnc(-n3ccc(C(F)F)n3)c(F)c2)c(C(F)F)n1 [compound 162],–,68%,99%,100%,"Test C disease control rating [5, 6]: 98%"
Cc1sccc1C(=O)Nc1ccccc1-c1cnc(-n2ccc(C(F)(F)F)n2)c(F)c1 [compound 163],–,79%,96%,100%,"Test C disease control rating [5, 6]: 97%"
O=C(Nc1ccccc1-c1cnc(-n2ccc(C(F)(F)F)n2)c(Cl)c1)c1scnc1C(F)(F)F [compound 165],–,0%,–,–,"Test E disease control rating [3, 7]: 87* %; Test C disease control rating [5, 7]: 99* %; Test D disease control rating [4, 7]: 98* %"
O=C(Nc1ccccc1-c1cnc(-n2ccc(C(F)(F)F)n2)c(Cl)c1)c1sccc1C(F)(F)F [compound 167],–,–,–,–,"Test B disease control rating [2, 7]: 98* %; Test E disease control rating [3, 7]: 94* %; Test C disease control rating [5, 7]: 100* %; Test D disease control rating [4, 7]: 100* %"
O=C(Nc1ccccc1-c1cnc(-n2ccc(C(F)(F)F)n2)c(Cl)c1)c1sccc1Cl [compound 168],–,–,–,–,"Test B disease control rating [2, 7]: 0* %; Test E disease control rating [3, 7]: 64* %; Test C disease control rating [5, 7]: 95* %; Test D disease control rating [4, 7]: 99* %"
Cc1scnc1C(=O)Nc1ccccc1-c1cnc(-n2ccc(C(F)(F)F)n2)c(Cl)c1 [compound 170],–,–,–,–,"Test B disease control rating [2, 7]: 50* %; Test E disease control rating [3, 7]: 0* %; Test C disease control rating [5, 7]: 74* %; Test D disease control rating [4, 7]: 0* %"
O=C(Nc1ccccc1-c1cnc(-n2ccc(C(F)(F)F)n2)c(Cl)c1)c1sccc1F [compound 176],–,–,–,–,"Test B disease control rating [2, 7]: 0* %; Test E disease control rating [3, 7]: 0* %; Test C disease control rating [5, 7]: 93* %; Test D disease control rating [4, 7]: 0* %"
